# From patent US20150034084A1, “[…] NITRIC OXIDE FOR TREATING RESPIRATORY DISEASES” (Advanced Inhalation Therapies (AIT) Ltd., priority 2012, published 2015)
# Tests used:
# [1] = test system: all microorganisms tested; assay: Bactericidal effect of 200 ppm gNO, whole panel of microbes (average / all tested); type: cell-based; settings: saline, average over the bacteria of Table 1
# From the text: A similar procedure was used to determine the time required to induce an effective bactericidal effect with 200 parts per million gNO, a concentration just above the dose used in the dose-ranging study presented hereinabove, on a representative collection of drug resistant gram-positive and gram-negative strains of bacteria associated with clinical infection.
# A successful bactericidal effect was defined as a decrease in bacteria greater than 3 log10 CFU/mL. Further, C. albicans, Methicillin Resistant S. aureus (MRSA), a particularly resistant strain of P. aeruginosa from a cystic fibrosis patient, Group B Streptococcus, and M. smegmatis were also included to evaluate if yeasts, a multi-drug resistant strain of bacteria and actinomycetes have a similar response. These bacteria represent a comprehensive variety of drug resistant bacterial pathogens that contribute to both respiratory and wound infections. The results from these studies laid the foundation for use of gNO at a concentration higher than 160 ppm as an antibacterial agent, specifically for use against bacteria associated with clinical infections.
# For this study, saline was selected as a suspension media because it would not mask the direct effect of gNO as a bactericidal, whereas fully supplemented growth medium might introduce external variables (e.g., buffer or react with gNO). Other media might also provide metabolites and replenish nutrients that produce enzymes that protect bacteria from oxidative and nitrosative damage, thereby masking the effect of gNO. […] In saline, the colonies were static but remained viable. These conditions are similar to the approach previously used in animal models.
# Without exception, every bacteria challenged with 200 ppm gNO had at least a 3 log10 reduction in CFU/mL. […] The latent period was then followed by an abrupt death of all cells; gram negative and gram positive bacteria, antibiotic resistant bacterial strains, yeast and mycobacteria all were susceptible to 200 ppm gNO. […]
# [2] = test system: human respiratory syncytial virus (rgRSV30); assay: RSV exposure to 160 ppm gNO for 30 minutes, plaque/fluorescence assay; type: cell-based; settings: single 30 minutes exposure to 160 ppm gNO
# [3] = Phase I open label safety study of intermittent 160 ppm gNO inhalation: adverse events, vital signs, oxygenation; type: in vivo, human
# From the text: 10 healthy adult volunteer subjects (5 males, 5 females), aged 20 to 62 years, were enrolled in the study after screening their medical history, a physical examination, pulmonary function tests and blood values. Exclusion criteria included individuals less than 19 years of age, pregnant females and unwilling to practice birth control during the study, diagnosed with pulmonary disease, epistaxis, hemoptysis, methemoglobinemia, organ transplant recipient or receiving antibiotic therapy.
# (§1) After obtaining informed consent, treatment was initiated within 5 days of enrollment. Subjects were housed in a hospital ward and received 160 ppm gNO for 30 minutes every four hours (Q4h), five times a day, for five consecutive days by inhalation. Subjects returned for follow-up evaluations 3, 7 and 21 days after the final gNO administration. Subject safety was determined by monitoring vital signs, methemoglobin levels, lung function, blood chemistry, hematology, prothrombin time, inflammatory cytokine/chemokines levels and endothelial activation. These parameters were compared to baseline and at various time-points during and after gNO administration.
# Subjects were administered gNO through a modified disposable mouthpiece to maximize mixing. Inspiration was spontaneously initiated by the subject from a conventional intermittent positive pressure breathing respirator (Mark-7, Carefusion, USA) in fixed flow mode delivering 48 liters per minute (LPM). Flows of gas were verified with a calibrated mass flow meter (TSI, USA). Gaseous nitric oxide (gNO, obtained at INOmax, Ikaria, USA) at a concentration of 800 ppm delivered at a flow of 12 LPM was titrated into a distal delivery port on the mouth piece connected to the respirator during inspiratory phase only (pressure switch). The Mark 7 respirator was supplied by an air/oxygen blender (Bird Sentry, Carefusion, USA) set to deliver 26% oxygen.
# General medical examinations were performed by a pulmonary physician on screening and on days 8, 12 and 26 to obtain oxygenation and vital sign measurements. Abbreviated physical examination by a registered nurse was carried out each day prior to initiation of treatments on days 1-5. Oxygenation was measured with a pulse oximeter (Rad 57, Masimo Corporation, USA) which was used according to manufacturer's guidelines to measure functional oxygen saturation of arterial hemoglobin (SpO2) and heart rate. These parameters were measured continuously during every gNO administration and for 3.5 hours after the first treatment of the day. Cardiovascular status was determined by monitoring heart rate, blood pressure, respiratory rate and temperature. Values were recorded prior to the start of each gNO administration, following a 5 minute rest. During treatments, vital signs (except temperature) were also performed 15 minutes after the start of the treatment and at the end of gNO administration and recorded. After the first treatment each day, vital signs were recorded at every 30 minutes until the start of the second gNO administration of the day.
# [4] = test system: Ang-1 and Ang-2; assay: Phase I safety study: plasma angiopoietins (vascular endothelial activation); type: in vivo, human; settings: 160 ppm gNO inhalation
# Protocol: as §1
# Hematological assessment included a complete blood count and differentials (hemoglobin, hematocrit, red blood cell count, white blood cell count, white blood cell differential, and platelet count) were obtained in order to monitor blood chemistry, hematology and inflammation measurements. The blood chemistry profile included serum creatinine, and liver function tests such as aspartate aminotransferase (AST) serum glutamic oxaloacetic transaminase (SGOT), alkaline phosphatase, and gamma-glutamyl transferase (GGT). The effect of gNO on coagulation was determined by the prothrombin time (PT) and its derived measures of prothrombin ratio (PR) and international normalized ratio (INR). Heparinized plasma was collected at baseline and on days 1, 2, 4, and 5 of gNO administration, and on follow-up days 3, 7 and 21 and frozen at −80° C. Plasma cytokine levels were assessed using the human inflammation cytokine bead array kit (BD Bioscience, Canada). Plasma levels of angiopoietin Ang-1 and Ang-2 were determined by ELISA (R&D Systems, USA).
# To assess whether gNO inhalation may cause inflammation or endothelial activation cytokines and the vascular endothelium activation factors Ang-1 and Ang-2 were quantified in peripheral plasma at baseline at various time points thereafter.
# [5] = test system: Klebsiella sp.#1; settings: 200 ppm gNO, saline; cited from earlier work
# [6] = test system: all microorganisms tested; settings: 200 ppm gNO, cited from earlier work
# [7] = test system: five planktonic species of methicillin resistant S. aureous (MRSA); settings: 1,600 ppm hours of gNO; cited from earlier work
# [8] = test system: Pseudomonas aeruginosa; settings: 160 ppm gNO, intermittent 30 minute exposures, rat; cited from earlier work
# [9] = 160 ppm gNO 30 min, 5 times a day, 5 days, 10 healthy adults
# [10] = during or after gNO administration, 160 ppm
compound,measurement,setting,value
"[N]=O [gNO, nitric oxide]","LD100, Average",[1],4.77 h
same,"Latent Period, Average",[1],2.77 h
same,"−2.5 Log10, Average",[1],3.82 hours
same,viral viability,[2]; starting level 500 PFU,substantially nullified
same,reduction of virus viability (factor),[2]; starting level 1000 PFU,~10
same,reduction of virus viability (factor),[2]; starting level 2000 PFU,~10
same,minor adverse events reported,[3]; [9],Three minor adverse events were reported
same,significant adverse events,[3]; [9],no significant adverse events were observed
same,tolerability of treatments,"[3]; 160 ppm gNO 30 min, 5 times a day, 5 days, 10 healthy adults, 250 administrations",All treatments were well tolerated
same,lowest observed SpO2,[3]; 160 ppm gNO intermittent inhalation,93%
same,"SpO2 levels over time, pretreatment vs post treatment","[3]; 160 ppm gNO, not significant statistically nor clinically",decreased slightly
same,vital signs,"[3]; during and after gNO administration, 160 ppm",all vital signs remained within normal limits
same,blood pressure,[3]; [10],no drop in blood pressure
same,incidences of hypoxemia (less than 85% SpO2),[3]; [10],No sudden incidences of hypoxemia
same,Ang-2/Ang-1 ratio,[4],not affected
same,plasma Ang-1,[4],unaffected
same,plasma Ang-2,[4],not affected
same,LD100,[5],6 h
same,Latent Period,[5],3 h
same,−2.5 Log10,[5],3.5 hours
same,bactericidal effect,[6],complete bactericidal effect on all microorganisms tested
same,reduction in CFU/mL,[6]; every bacteria challenged,≥ 3 log10
same,population of planktonic MRSA strains,[7],A reduction in the population of all five MRSA planktonic strains was observed
same,pulmonary bioburden and leukocyte infiltration,[8],effective to reduce the pulmonary bioburden and leukocyte infiltration
